Drawing on PubChem BioAssay (NCI), this text covers GI50 and TGI for eight compounds.

Where “and” joins values, the source holds several entries; their conditions need not be identical. Equal entries are not always repeated.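 In this assay, cells in 96-well plates receive the compound at five concentrations for 48 hours. Endpoints are linearly interpolated between the surrounding concentrations. The concentration for 50% growth inhibition is given as GI50. TGI denotes the concentration required for complete inhibition of growth.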 Bounds are passed on as bounds.

Test systems include A498 renal; CCRF-CEM leukemia; HCT-116 colon; HOP-62 NSCLC; HOP-92 NSCLC; MOLT-4 leukemia; NCI-H23 lung; OVCAR-3 ovarian; SK-OV-3 ovarian; SR leukemia.
Holding throughout (assay): inhibition of tumour cell growth, NCI panel, 48 h

Turning to `Cc1ccc(NC(=O)/C=C/c2ccccc2)c(C(N)=O)c1`, the GI50 in the assay on A498 renal is 3.61 µM; in the assay on CCRF-CEM leukemia, 2.33 µM; with HCT-116 colon it was 2.96 µM; in the assay with HOP-62 NSCLC, 11.1 µM; with HOP-92 NSCLC, 15.5 µM; in the assay with MOLT-4 leukemia, 3.34 µM. Besides, the GI50 is 4.46 µM in the assay on NCI-H23 lung, 2.28 µM in the assay on OVCAR-3 ovarian, 3.26 µM in the assay with SK-OV-3 ovarian and 0.881 µM in the assay with SR leukemia. Further, the TGI in the assay with A498 renal is 34.6 µM; with CCRF-CEM leukemia it was above 29.2 µM; in the assay with HCT-116 colon, above 76.8 µM; in the assay with HOP-62 NSCLC, above 100 µM; in the assay on HOP-92 NSCLC, above 100 µM; with MOLT-4 leukemia it was above 74.1 µM. Moreover, the TGI in the assay on NCI-H23 lung was above 100 µM; in the assay on OVCAR-3 ovarian it was 6.68 µM; with SK-OV-3 ovarian, 19.1 µM; with SR leukemia, 20.1 µM.
With `Cc1ccc(C(=O)Nc2ccc(CN3CCN(C)CC3)c(C(F)(F)F)c2)cc1C#Cc1cnc2cccnn12`, the GI50 in the assay with A498 renal is 0.299 µM and 0.47 µM; with CCRF-CEM leukemia it was 0.618 µM and 1.65 µM; in the assay on HCT-116 colon it was 0.235 µM and 0.464 µM; with HOP-62 NSCLC it was 0.413 µM and 0.849 µM; in the assay with HOP-92 NSCLC, 0.104 µM and 0.306 µM; with MOLT-4 leukemia, 0.35 µM and 0.703 µM. Moreover, the GI50 was 0.964 µM in the assay with NCI-H23 lung; 0.785 µM and 1.36 µM in the assay on OVCAR-3 ovarian; 0.342 µM and 1.16 µM in the assay on SK-OV-3 ovarian; 0.447 µM and 0.383 µM with SR leukemia. The TGI was 1.07 µM and 1.85 µM with A498 renal; 5.21 µM and 5.63 µM with CCRF-CEM leukemia; 1.05 µM and 3.43 µM in the assay with HCT-116 colon; 1.53 µM and 3.73 µM in the assay on HOP-62 NSCLC; 0.785 µM and 2.03 µM in the assay with HOP-92 NSCLC; 2.02 µM and 4.45 µM in the assay on MOLT-4 leukemia. The TGI in the assay with NCI-H23 lung is 4.15 µM; with OVCAR-3 ovarian, 2.07 µM and 4.2 µM; in the assay with SK-OV-3 ovarian it was 1.22 µM and 3.74 µM; with SR leukemia, 2.11 µM and 1.98 µM.
As to `CC(C)(C)c1ccc(OCCCCCCN2CCNCC2)cc1`, the GI50 with A498 renal is 9.44 µM; in the assay with CCRF-CEM leukemia, 2.88 µM; in the assay with HCT-116 colon, 3.18 µM; in the assay on HOP-62 NSCLC, 11 µM; with HOP-92 NSCLC, 3.31 µM; in the assay on MOLT-4 leukemia, 1.82 µM. In addition, the GI50 in the assay with NCI-H23 lung was 7.59 µM; in the assay with OVCAR-3 ovarian it was 7.38 µM; in the assay with SK-OV-3 ovarian it was 10.9 µM; in the assay on SR leukemia, 2.04 µM. Besides, the TGI amounted to 23.1 µM in the assay with A498 renal; 12 µM in the assay on CCRF-CEM leukemia; 13.9 µM in the assay with HCT-116 colon; 25.8 µM in the assay on HOP-62 NSCLC; 19.7 µM with HOP-92 NSCLC; 5.07 µM in the assay with MOLT-4 leukemia. Moreover, the TGI turned out to be 23 µM with NCI-H23 lung, 20.8 µM with OVCAR-3 ovarian, 24.7 µM in the assay with SK-OV-3 ovarian and 5.85 µM in the assay with SR leukemia.
Consider `O=C(N/N=C/c1ccc2c(c1)CCC2)c1ccccc1O`, for which the TGI in the assay on A498 renal is 36.8 µM; with CCRF-CEM leukemia, above 100 µM; in the assay with HCT-116 colon, 43.7 µM; with HOP-62 NSCLC, 38 µM; with HOP-92 NSCLC, 65.3 µM; with MOLT-4 leukemia, above 100 µM. For the same compound, the TGI with NCI-H23 lung is 82.2 µM; with OVCAR-3 ovarian it was 41.5 µM; in the assay with SK-OV-3 ovarian, 30 µM; in the assay with SR leukemia, above 100 µM.
`COC1CC(OS(=O)(=O)c2ccc(C)cc2)C(OC(=O)c2ccccc2)C(C)O1` (configuration not stated): the GI50 was above 100 µM in the assay on A498 renal; above 100 µM in the assay on CCRF-CEM leukemia; above 100 µM in the assay with HOP-62 NSCLC; above 10 µM with HOP-92 NSCLC; above 100 µM in the assay with MOLT-4 leukemia; above 100 µM in the assay with NCI-H23 lung. Besides, the GI50 in the assay with SK-OV-3 ovarian was above 100 µM. Further, the TGI in the assay on A498 renal is above 100 µM; with CCRF-CEM leukemia, above 100 µM; with HCT-116 colon, above 10 µM; in the assay on HOP-62 NSCLC, above 100 µM; with HOP-92 NSCLC it was above 100 µM; in the assay on MOLT-4 leukemia, above 100 µM. The TGI with NCI-H23 lung was above 100 µM; in the assay on OVCAR-3 ovarian, above 10 µM; with SK-OV-3 ovarian it was above 100 µM; with SR leukemia it was above 10 µM.
For the compound `CCN=C1C=CC(=C(c2ccc(N)cc2)c2ccc(N(CC)CC)c(C)c2)C=C1`, the GI50 was 0.24 µM with A498 renal; 0.306 µM in the assay with CCRF-CEM leukemia; 0.239 µM in the assay with HCT-116 colon; 0.316 µM with HOP-62 NSCLC; 0.182 µM in the assay with HOP-92 NSCLC; 0.394 µM in the assay with MOLT-4 leukemia. Further, the GI50 in the assay with NCI-H23 lung was 0.318 µM; with OVCAR-3 ovarian it was 0.368 µM; with SK-OV-3 ovarian it was 0.255 µM; in the assay with SR leukemia, 0.313 µM. For the same compound, the TGI with A498 renal turned out to be 0.931 µM; in the assay on CCRF-CEM leukemia, 5.35 µM; in the assay on HCT-116 colon, 1.11 µM; with HOP-62 NSCLC, 1.73 µM; in the assay with HOP-92 NSCLC it was 0.543 µM; in the assay on MOLT-4 leukemia, 5.12 µM. Moreover, the TGI with NCI-H23 lung is 1.3 µM; with OVCAR-3 ovarian, 1.26 µM; with SK-OV-3 ovarian, 0.703 µM; with SR leukemia, 1.24 µM.
Take `COc1ccc(-c2cc(-c3ccccc3)nc(SCCCC(=O)NO)n2)cc1`: the GI50 was 0.816 µM with A498 renal; 0.387 µM with CCRF-CEM leukemia; 0.531 µM in the assay on HCT-116 colon; 0.994 µM in the assay on HOP-62 NSCLC; 1.71 µM in the assay with HOP-92 NSCLC; 0.758 µM in the assay with MOLT-4 leukemia. In addition, the GI50 in the assay with NCI-H23 lung was 1.51 µM; in the assay on OVCAR-3 ovarian, 1.2 µM; in the assay on SK-OV-3 ovarian, 1.74 µM; in the assay with SR leukemia it was 0.363 µM. The TGI with A498 renal amounted to 2.53 µM; in the assay with CCRF-CEM leukemia it was 13.5 µM; with HCT-116 colon, 12.7 µM; in the assay on HOP-62 NSCLC it was 8.88 µM; in the assay with HOP-92 NSCLC it was 5.42 µM; in the assay with MOLT-4 leukemia it was 10.9 µM. Moreover, the TGI in the assay on NCI-H23 lung was 4.75 µM; in the assay on OVCAR-3 ovarian, 5.17 µM; with SK-OV-3 ovarian, 5.54 µM; in the assay on SR leukemia it was above 33.3 µM.
On to `N=C(N)c1ccc(N2CCCN(c3ccc(C(=N)N)cc3)CC2)cc1`, for which the GI50 in the assay on A498 renal was 1.76 µM; with CCRF-CEM leukemia, above 100 µM; in the assay with HCT-116 colon it was above 100 µM; in the assay with HOP-62 NSCLC, 61.6 µM; in the assay on HOP-92 NSCLC, 89.6 µM; with MOLT-4 leukemia, above 100 µM. The GI50 in the assay with NCI-H23 lung is 74.5 µM; in the assay on OVCAR-3 ovarian, 72.4 µM; in the assay with SK-OV-3 ovarian it was above 100 µM; in the assay on SR leukemia it was above 100 µM. The TGI with A498 renal is 9.62 µM; in the assay with CCRF-CEM leukemia, above 100 µM; in the assay with HCT-116 colon, above 100 µM; in the assay on HOP-62 NSCLC it was above 100 µM; in the assay on HOP-92 NSCLC, above 100 µM; in the assay on MOLT-4 leukemia, above 100 µM. Besides, the TGI in the assay with NCI-H23 lung, with OVCAR-3 ovarian, in the assay with SK-OV-3 ovarian and with SR leukemia was above 100 µM in each case.
